Here are results for two compounds from patent US8871726B2, “C-aryl glucoside derivative, preparation method therefor, and use thereof” (Shanghai Allist Pharmaceuticals, Inc., priority 2010, dated 2014).

The test system of one assay is normal rat. As to the kind of experiment: Effect on the urine glucose excretion of the normal rat. The class given is in vivo. The note with it: normal SD rats, single intragastric oral administration, then glucose 2 g/kg; in comparison with the blank control, P<0.01, dosage-dependent. An excerpt:
The drug effect of promoting the urine glucose excretion can be determined according to the conventional assay. One preferable evaluation assay is to detect the effect of the present compound on the urine glucose excretion of the normal rat. The assay can be conducted as follows. Thirty 7-week-old male SD rats (about 200 g) are used in the assay. The tested compound having a purity of 97.8% is formulated with 0.75% CMC-Na. […] The SD rats are acclimatized for 7 days, and then placed in the metabolic cages. The rats are fasted overnight (18 hr) under the free access to water. The basic urine samples are collected, and then thirty rats are weighed and grouped randomly into five groups, six rats per group. The rats are administered with the tested compounds or the positive control drug at low dosage, medium dosage, or high dosage. Fifteen minutes after the administration, the rats are intragastrically administrated with 50% glucose solution (2 g/kg). For ensuring a complete collection of the 24-hour urine, the rats are immediately placed in the metabolic cage after the administration of the tested compounds or the positive control drug. One hour after the administration of the glucose solution, the feeds are supplied to the rats. The urines after the administration of the tested compounds or the positive control drug are collected for 24 hours, and then the urine volumes are calculated and the urine glucose concentrations are detected.
The data are analyzed with the software SPSS 12.0, and the quantized data are expressed in “average±standard deviation”. Multiple sets of data are compared according to the analysis of variance (One-way ANOVA). P<0.05 represents statistical difference.
Thirty 7-week-old male SD rats (about 200 g) were used. The compound of Example 2 having a purity of 97.8% was chose as the present compound and formulated with 0.75% CMC-Na. […] The SD rats were acclimatized for 7 days, and then placed in the metabolic cages. The rats were fasted overnight (18 hr) under the free access to water. The basic urine samples were collected, and then thirty rats were weighed and grouped randomly into five groups, six rats per group.
Fifteen minutes after the administration, the rats were intragastrically administrated with 50% glucose solution (2 g/kg). For ensuring a complete collection of the 24-hour urine, the rats were immediately placed in the metabolic cage after the administration of the tested compounds or the positive control drug. […] The urines after the administration of the tested compounds or the positive control drug were collected for 24 hours, and then the urine volumes were calculated and the urine glucose concentrations were detected.
The data were analyzed with the software SPSS 12.0, and the quantized data were expressed in “average±standard deviation”. […]

A further assay deals with T1, human SGLT-1 (Homo sapiens, UniProt P13866).
T1 sequence (P13866 1-664): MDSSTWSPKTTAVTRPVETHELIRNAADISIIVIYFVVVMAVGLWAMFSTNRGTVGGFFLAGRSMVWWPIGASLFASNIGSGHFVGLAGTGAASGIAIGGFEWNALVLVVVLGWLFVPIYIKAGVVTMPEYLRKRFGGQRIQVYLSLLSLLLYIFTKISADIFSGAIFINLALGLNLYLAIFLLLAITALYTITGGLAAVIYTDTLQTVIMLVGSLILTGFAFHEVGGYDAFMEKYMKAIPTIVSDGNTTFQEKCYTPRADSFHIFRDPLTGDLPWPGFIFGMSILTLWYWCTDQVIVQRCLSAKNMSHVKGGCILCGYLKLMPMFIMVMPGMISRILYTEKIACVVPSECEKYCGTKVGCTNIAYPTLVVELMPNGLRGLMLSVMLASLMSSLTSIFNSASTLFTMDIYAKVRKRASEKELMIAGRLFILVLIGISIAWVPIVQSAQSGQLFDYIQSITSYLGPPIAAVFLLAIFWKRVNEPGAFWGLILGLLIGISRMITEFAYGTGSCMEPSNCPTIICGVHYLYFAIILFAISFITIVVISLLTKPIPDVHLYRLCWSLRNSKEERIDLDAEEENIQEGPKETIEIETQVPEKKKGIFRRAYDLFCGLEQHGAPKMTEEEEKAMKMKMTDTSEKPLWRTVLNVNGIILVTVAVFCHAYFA
As to the kind of experiment: Inhibitory effect on human SGLT-1 (14C-methyl-a-D-glucopyranoside uptake in transfected NIH3T3 cells). The class given is cell-based. The note with it: NIH3T3 cells expressing human SGLT-1; read-out: IC50 value for inhibiting the human SGLT-1. How it is done:
(§1) 0.2% gelatin was plated on a 24-well plate, and the plate was kept overnight. The plate was washed with PBS once before use. The NIH3T3 cells expressing human SGLT-1 by transfection were inoculated into the 24-well plate in 100,000 cells per well and 1 mL culture medium per well. On the third day, the culture medium was changed once, and simultaneously sodium butyrate was added thereto with a final concentration of 2 mM. The cells were washed with KRH-Na^+ (500 μL) twice, and then incubated with KRH-Na^+ (500 μL) for 30 minutes. The cells were then treated with 200 μL of KRH-Na^+ containing the compound of Example 2, and 50 μL of an uptake buffer (KRH-Na^+ plus methyl-a-D-[U-14C] glucopyranoside and 1 mM methyl-a-D-glucopyranoside). The cells were washed with 500 μL wash buffer thrice with the operation on ice, and baked overnight. The cells were lysed with 200 μL of 0.25N NaOH at 4° C. for 1 hr. The lysate was removed into an EPPENDORF tube, and centrifuged at 4° C. under 12000 g for 5 mins. […] of supernatant was placed in a 2 mL EPPENDORF tube, and 1.7 mL of scintillation cocktail was added thereto. The mixture was shaked vigorously, and then counted. The inhibition rate of the compound of Example 2 at each of concentrations on the transporting activity was calculated.
(§2) IC50 value could be determined by nonlinear curve fitting of sample activities vs. sample concentrations. […]

The target in another assay is T2, human SGLT-2 (Homo sapiens, UniProt P31639).
T2 construct: expressed in transfected cells; host or cells: NIH3T3 cells
T2 sequence (P31639 1-672): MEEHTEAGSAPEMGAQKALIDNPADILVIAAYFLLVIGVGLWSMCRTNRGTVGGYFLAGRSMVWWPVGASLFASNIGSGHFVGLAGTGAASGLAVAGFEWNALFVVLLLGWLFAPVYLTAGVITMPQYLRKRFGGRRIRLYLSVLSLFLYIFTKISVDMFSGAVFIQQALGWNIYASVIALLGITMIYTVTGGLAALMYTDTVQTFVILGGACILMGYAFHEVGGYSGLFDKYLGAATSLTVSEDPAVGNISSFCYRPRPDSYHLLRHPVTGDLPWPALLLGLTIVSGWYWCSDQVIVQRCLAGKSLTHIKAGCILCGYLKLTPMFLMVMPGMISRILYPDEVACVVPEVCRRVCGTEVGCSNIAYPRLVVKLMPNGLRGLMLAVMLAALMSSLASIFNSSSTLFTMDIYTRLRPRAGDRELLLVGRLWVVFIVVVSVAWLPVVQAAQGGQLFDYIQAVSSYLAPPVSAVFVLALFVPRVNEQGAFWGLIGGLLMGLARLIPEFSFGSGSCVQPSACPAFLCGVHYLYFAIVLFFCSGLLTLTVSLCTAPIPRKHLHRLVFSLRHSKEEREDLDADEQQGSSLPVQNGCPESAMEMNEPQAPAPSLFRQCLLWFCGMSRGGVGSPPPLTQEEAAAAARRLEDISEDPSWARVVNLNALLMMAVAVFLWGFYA
As to the kind of experiment: Inhibitory effect on human SGLT-2 (14C-methyl-a-D-glucopyranoside uptake in transfected NIH3T3 cells). The note with it: NIH3T3 cells expressing human SGLT-2; read-out: IC50 value for inhibiting the human SGLT-2. The format is cell-based. How it is done:
as §1, with “SGLT-2” for “SGLT-1”
as §2

With `CS[C@H]1O[C@@H](c2ccc(C)c(Cc3ccc(-c4ccc(F)cc4)s3)c2)[C@H](O)[C@@H](O)[C@@H]1O` [Example 2, (2S,3R,4R,5S,6R)-2-[3-((5-(4-fluorophenyl)thienyl)-2-methylene)-4-methylphenyl)-6-methylthio-tetrahydropyran-3,4,5-triol], in the assay on normal rat, the “24-hour urine glucose masses” value is recorded as “remarkably increased”. In addition, in the assay with normal rat, the 24-hour urine volumes result was “remarkably increased”. Also, the IC50 (as a rule, the concentration that gives 50% inhibition) on human SGLT-1 stood at 28.7 µM; at human SGLT-2 it was 0.000172 µM.

`CCOc1ccc(Cc2cc([C@@H]3O[C@H](CO)[C@@H](O)[C@H](O)[C@H]3O)ccc2Cl)cc1` [Dapagliflozin, reference compound]: in the assay on normal rat, the “24-hour urine glucose masses” value is listed as “remarkably increased” and the 24-hour urine volumes entry was “remarkably increased”.
